In PubChem BioAssay AID248 (DTP/NCI, 2004):
Values joined by “and” are separate entries in the source; they are usually repeats but may differ in a detail not shown here. Identical values can stand only once. Inconclusive results and toxic doses are left out. Rule as the data show it: active = T/C of 150% or more; inactive = T/C below 125%.

Test system: L1210 leukemia ip in BDF1 mice, survival T/C
Assay: NCI In Vivo Anticancer Drug Screen. Data for tumor model L1210 Leukemia (intraperitoneal) in B6D2F1 (BDF1) mice
Conditions: endpoint: mean survival time, higher = longer survival
Summary of the method: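 Ratio derived from survival: compound-dosed mice over vehicle-dosed mice, all bearing a transplantable tumor.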

[1] = dose: 100.0 mg/kg/injection, schedule: Q01DX001 (ip), vehicle: saline
[2] = dose: 200.0 mg/kg/injection, schedule: Q01DX001 (ip), vehicle: saline
[3] = dose: 400.0 mg/kg/injection, schedule: Q01DX001 (ip), vehicle: saline
[4] = dose: 100.0 mg/kg/injection, schedule: Q01DX001 (ip), vehicle: saline with Tween-80
[5] = dose: 200.0 mg/kg/injection, schedule: Q01DX001 (ip), vehicle: saline with Tween-80
[6] = dose: 100.0 mg/kg/injection, schedule: Q04DX002 (ip), vehicle: saline

Measured: T/C

O=[N+]([O-])c1ccc2c(c1)/C(=N\O)c1cc(Cl)c(Cl)cc1-2
inactive: dose: 100.0 mg/kg/injection, schedule: Q01DX001 (ip), vehicle: carboxymethylcellulose (CMC) 98 % of control | dose: 100.0 mg/kg/injection, schedule: Q04DX003 (ip), vehicle: acetone 94 % of control | dose: 200.0 mg/kg/injection, schedule: Q01DX001 (ip), vehicle: carboxymethylcellulose (CMC) 98 % of control | dose: 200.0 mg/kg/injection, schedule: Q04DX003 (ip), vehicle: acetone 100 % of control | dose: 400.0 mg/kg/injection, schedule: Q01DX001 (ip), vehicle: carboxymethylcellulose (CMC) 95 % of control | dose: 400.0 mg/kg/injection, schedule: Q04DX003 (ip), vehicle: acetone 96 % of control

CCS(=O)(=O)c1ccc(NC(=O)OC2CCC3(C)C(=CCC4C3CCC3(C)C(C(C)CCCC(C)C)CCC43)C2)cc1 (centres undefined)
inactive: dose: 100.0 mg/kg/injection, schedule: Q01DX001 (sc), vehicle: steriod suspending solution 97 % of control | dose: 200.0 mg/kg/injection, schedule: Q01DX001 (sc), vehicle: steriod suspending solution 100 % of control | dose: 400.0 mg/kg/injection, schedule: Q01DX001 (sc), vehicle: steriod suspending solution 94 % of control

COc1ccc(OCCCCCCCCCCBr)cc1
inactive: dose: 100.0 mg/kg/injection, schedule: Q04DX002 (ip), vehicle: other 101 % of control | dose: 200.0 mg/kg/injection, schedule: Q04DX002 (ip), vehicle: other 96 % of control | dose: 400.0 mg/kg/injection, schedule: Q04DX002 (ip), vehicle: other 93 % of control

CC(=O)OCCC(OC(C)=O)c1ccccn1 (centres undefined)
inactive: dose: 50.0 mg/kg/injection, schedule: Q01DX001 (ip), vehicle: saline 100 % of control | [1] 103 % of control | [2] 97 % of control | [3] 103 % of control

CCCCN(CCCC)C(=O)c1[nH]cnc1/N=N\N(C)C
inactive: dose: 50.0 mg/kg/injection, schedule: Q01DX009 (ip), vehicle: saline with Tween-80 117 % of control | [4] 106 % of control | dose: 100.0 mg/kg/injection, schedule: Q01DX009 (ip), vehicle: saline with Tween-80 108 % of control | [5] 118 % of control

O=c1[nH]c2ccccc2c(C(Cl)(Cl)Cl)c1Cl
inactive: dose: 12.5 mg/kg/injection, schedule: Q01DX009 (ip), vehicle: Klucel (hydroxypropylcellulose) (HPC) 93 % of control | dose: 25.0 mg/kg/injection, schedule: Q01DX009 (ip), vehicle: Klucel (hydroxypropylcellulose) (HPC) 90 % of control | dose: 50.0 mg/kg/injection, schedule: Q01DX009 (ip), vehicle: Klucel (hydroxypropylcellulose) (HPC) 100 % of control and 108 % of control | dose: 100.0 mg/kg/injection, schedule: Q01DX009 (ip), vehicle: Klucel (hydroxypropylcellulose) (HPC) 93 % of control

CN(C)CCN(C)C(=O)C(O)(c1ccccc1)c1ccccc1
inactive: dose: 100.0 mg/kg/injection, schedule: Q04DX002 (ip), vehicle: saline with Tween-80 97 % of control | dose: 200.0 mg/kg/injection, schedule: Q04DX002 (ip), vehicle: saline with Tween-80 97 % of control | dose: 400.0 mg/kg/injection, schedule: Q04DX002 (ip), vehicle: saline with Tween-80 97 % of control

Cn1cc2ccccc2n1
inactive: dose: 50.0 mg/kg/injection, schedule: Q01DX001 (ip), vehicle: saline with Tween-80 102 % of control | [4] 100 % of control | [5] 102 % of control

O=[N+]([O-])c1ccc(Oc2ccc(C3N(c4ccccc4)CCN3c3ccccc3)cc2)c([N+](=O)[O-])c1
inactive: dose: 25.0 mg/kg/injection, schedule: Q01DX009 (ip), vehicle: water 91 % of control | dose: 50.0 mg/kg/injection, schedule: Q01DX009 (ip), vehicle: water 91 % of control | dose: 100.0 mg/kg/injection, schedule: Q01DX009 (ip), vehicle: water 86 % of control | dose: 200.0 mg/kg/injection, schedule: Q01DX009 (ip), vehicle: water 91 % of control | dose: 400.0 mg/kg/injection, schedule: Q01DX009 (ip), vehicle: water 86 % of control

COC(=O)c1n[nH]c(C)c1N=NN1CCOCC1
inactive: dose: 75.0 mg/kg/injection, schedule: Q01DX001 (ip), vehicle: saline 105 % of control | dose: 150.0 mg/kg/injection, schedule: Q01DX001 (ip), vehicle: saline 103 % of control | dose: 300.0 mg/kg/injection, schedule: Q01DX001 (ip), vehicle: saline 105 % of control

NC(CS)=NCCc1nc2ccccc2[nH]1
inactive: [6] 107 % of control

O=C1CCCC(c2ccccc2)C1 (centres undefined)
inactive: dose: 75.0 mg/kg/injection, schedule: Q01DX001 (ip), vehicle: other 95 % of control | dose: 150.0 mg/kg/injection, schedule: Q01DX001 (ip), vehicle: other 92 % of control | dose: 300.0 mg/kg/injection, schedule: Q01DX001 (ip), vehicle: other 95 % of control

CNCCCNCC(Cc1ccccc1)c1ccccc1 (centres undefined)
inactive: [6] 86 % of control

CC(/C=C/c1ccco1)=N\O
inactive: dose: 50.0 mg/kg/injection, schedule: Q01DX009 (ip), vehicle: other 105 % of control

COc1cc(N=Nc2ccc3c(c2)Cc2ccccc2-3)c(OC)cc1N
inactive: dose: 100.0 mg/kg/injection, schedule: Q01DX001 (ip), vehicle: other 111 % of control | dose: 200.0 mg/kg/injection, schedule: Q01DX001 (ip), vehicle: other 88 % of control | dose: 400.0 mg/kg/injection, schedule: Q01DX001 (ip), vehicle: other 105 % of control

OCC1CCCCC1Cc1ccc(F)c2ccccc12 (centres undefined)
inactive: dose: 100.0 mg/kg/injection, schedule: Q01DX001 (ip), vehicle: Klucel (hydroxypropylcellulose) (HPC) 98 % of control | dose: 200.0 mg/kg/injection, schedule: Q01DX001 (ip), vehicle: Klucel (hydroxypropylcellulose) (HPC) 93 % of control | dose: 400.0 mg/kg/injection, schedule: Q01DX001 (ip), vehicle: Klucel (hydroxypropylcellulose) (HPC) 102 % of control

CS(=O)(=O)OCCC(=O)NCNC(=O)CCOS(C)(=O)=O
inactive: dose: 10.6 mg/kg/injection, schedule: Q01DX Z (ip), vehicle: carboxymethylcellulose (CMC) 117 % of control and 120 % of control | dose: 16.0 mg/kg/injection, schedule: Q01DX Z (ip), vehicle: carboxymethylcellulose (CMC) 109 % of control | dose: 18.8 mg/kg/injection, schedule: Q01DX Z (ip), vehicle: carboxymethylcellulose (CMC) 124 % of control | dose: 24.0 mg/kg/injection, schedule: Q01DX Z (ip), vehicle: carboxymethylcellulose (CMC) 123 % of control | dose: 28.0 mg/kg/injection, schedule: Q01DX Z (ip), vehicle: carboxymethylcellulose (CMC) 124 % of control | dose: 54.0 mg/kg/injection, schedule: Q01DX Z (ip), vehicle: carboxymethylcellulose (CMC) 122 % of control | dose: 81.0 mg/kg/injection, schedule: Q01DX Z (ip), vehicle: carboxymethylcellulose (CMC) 117 % of control | dose: 84.0 mg/kg/injection, schedule: Q01DX Z (ip), vehicle: carboxymethylcellulose (CMC) 109 % of control | dose: 90.0 mg/kg/injection, schedule: Q01DX Z (ip), vehicle: carboxymethylcellulose (CMC) 121 % of control | dose: 95.0 mg/kg/injection, schedule: Q01DX Z (ip), vehicle: carboxymethylcellulose (CMC) 119 % of control

Nc1nc2c(c(=O)[nH]1)N=C(CCNc1ccc(C(=O)O)cc1)CN2
inactive: [1] 105 % of control | [2] 109 % of control | [3] 109 % of control

O=CN(c1ccccc1)c1ccccc1
inactive: dose: 100.0 mg/kg/injection, schedule: Q01DX009 (ip), vehicle: other 109 % of control | dose: 100.0 mg/kg/injection, schedule: Q04DX003 (ip), vehicle: saline 100 % of control | dose: 200.0 mg/kg/injection, schedule: Q01DX009 (ip), vehicle: other 106 % of control | dose: 200.0 mg/kg/injection, schedule: Q04DX003 (ip), vehicle: saline 102 % of control | dose: 400.0 mg/kg/injection, schedule: Q01DX009 (ip), vehicle: other 106 % of control | dose: 400.0 mg/kg/injection, schedule: Q04DX003 (ip), vehicle: saline 109 % of control
